Laboratory results taken from patent publication US20150299143A1, “SUBSTITUTED TRIAZOLE AND IMIDAZOLE COMPOUNDS” (HOFFMANN-LA ROCHE INC., priority 2012, published 2015).
Where two headings read alike, the source gives them in different places.

Columns and labels:
[1] = target: T1, β 5i (chymotrypsin-like activity) (Homo sapiens, UniProt P20618+P28062); test: Cell-Based Proteasome subunit activity/selectivity assay, β5i, substrate (ANW)2Rh110; settings: Ramos cells; substrate (ANW)2Rh110 (β5i); highest concentration tested 20 μM; read-out: Ic50:ramos:ac-(anw)2-r110
T1 construct: protease activity associated with the proteasome complex in cultured cells; endogenous in cells; host or cells: Ramos cells
Summary of the method: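 Cell-based fluorogenic assay measuring chymotrypsin-like β5i proteasome activity using the substrate (ANW)2Rh110. Cultured cells received 0.5 μl of 100× 4-fold serial diluted compounds or DMSO per well, were incubated 30 minutes at 37° C, then equilibrated 15 minutes at room temperature. After shaking one minute @ 700 rpm and 120 min room-temperature incubation, fluorescence was read at 500 nm excitation/519 nm emission on an Envision reader.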

[2] = target: T2, β5c (chymotrypsin-like activity) (Homo sapiens, UniProt P20618+P28074); test: Cell-Based Proteasome subunit activity/selectivity assay, β5c, substrate (WLA)2Rh110
T2 construct: protease activity associated with the proteasome complex in cultured cells; endogenous in cells; host or cells: Ramos cells
Summary of the method: (§1)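 Subunit activity in cultured cells read with subunit-selective fluorogenic Rh110 substrates: (LLE)2 for β1c, (PAL)2 for β1i, (KQL)2 for β2c/2i, (WLA)2 for β5c. Cells exposed to 4-fold serially diluted compound (top 20 μM) 30 min at 37 °C, then substrate 120 min at room temperature; fluorescence 500/519 nm.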

[3] = tested on: β 2c/2i (trypsin-like); test: Cell-Based Proteasome subunit activity/selectivity assay, β2c/2i, substrate (KQL)2Rh110; settings: Ramos cells; substrate (KQL)2Rh110 (β2c/2i); highest concentration tested 20 μM
Summary of the method: as §1

[4] = target: T3, β 1i (caspase-like) (Homo sapiens, UniProt P28065+P40306); test: Cell-Based Proteasome subunit activity/selectivity assay, β1i, substrate (PAL)2Rh110
T3 construct: protease activity associated with the proteasome complex in cultured cells; endogenous in cells; host or cells: Ramos cells
Summary of the method: as §1

[5] = target: T4, β 1c (caspase-like) (Homo sapiens, UniProt P28072+Q99436); test: Cell-Based Proteasome subunit activity/selectivity assay, β1c, substrate (LLE)2Rh110
T4 construct: protease activity associated with the proteasome complex in cultured cells; endogenous in cells; host or cells: Ramos cells
Summary of the method: as §1

[6] = Ramos cells, substrate (WLA)2Rh110 (β5c), highest concentration tested 20 μM, read-out: Ic50:ramos:rh110-(wla)2
[7] = Ramos cells, substrate (PAL)2Rh110 (β1i), highest concentration tested 20 μM, read-out: Ic50:ramos:rh110-(pal)2
[8] = Ramos cells, substrate (LLE)2Rh110 (β1c), highest concentration tested 20 μM, read-out: Ic50:ramos:rh110-(lle)2

Row | SMILES | IC50 [1] [µM] | IC50 [2, 6] [µM] | IC50 [3] [µM] | IC50 [4, 7] [µM] | IC50 [5, 8] [µM] | IC50 [2] [µM] | IC50 [4] [µM] | IC50 [5] [µM]
1 | CCc1ccc(C(C#N)NC(=O)c2cn(CCNC(=O)c3cccnc3OC)nn2)cc1 (stereo not shown) [Example 29, N-[2-(4-{[Cyano-(4-ethyl-phenyl)-methyl]-carbamoyl}-[1,2,3]triazol-1-yl)-ethyl]-2-methoxy-nicotinamide] | 3.05 | ≥ 20 | ≥ 20 | ≥ 20 | ≥ 20 | – | – | –
2 | CCOc1ccc(C(=O)NCCn2cc(C(=O)NC(C#N)c3ccc(CC)cc3)nn2)nc1 (stereo not shown) [Example 28, 5-Ethoxy-pyridine-2-carboxylic acid [2-(4-{[cyano-(4-ethyl-phenyl)-methyl]-carbamoyl}-[1,2,3]triazol-1-yl)-ethyl]-amide] | 0.933 | 13.3 | ≥ 20 | ≥ 20 | ≥ 20 | – | – | –
3 | COc1ccc(C(=O)NCCn2cc(C(=O)NC(C#N)c3ccc(OC(C)C)cc3)nn2)c(OC)c1OC (stereo not shown) [Example 67, 1-[2-(2,3,4-Trimethoxy-benzoylamino)-ethyl]-1H-[1,2,3]triazole-4-carboxylic acid [cyano-(4-isopropoxy-phenyl)-methyl]-amide] | 5.49 | ≥ 20 | ≥ 20 | ≥ 20 | ≥ 20 | – | – | –
4 | COc1ccc(C(=O)NCCn2cc(C(=O)NC(C#N)c3ccc(C(C)C)cc3)nn2)c(OC)c1OC (stereo not shown) [Example 61, 1-[2-(2,3,4-Trimethoxy-benzoylamino)-ethyl]-1H-[1,2,3]triazole-4-carboxylic acid [cyano-(4-isopropyl-phenyl)-methyl]-amide] | 1.31 | ≥ 20 | ≥ 20 | ≥ 20 | 17.1 | – | – | –
5 | CCc1ccc(C(C#N)NC(=O)c2cn(CCNC(=O)c3ccc(C(F)(F)F)cc3OC)cn2)cc1 (stereo not shown) [Example 92, 1-[2-(2-Methoxy-4-trifluoromethyl-benzoylamino)-ethyl]-1H-imidazole-4-carboxylic acid [cyano-(4-ethyl-phenyl)-methyl]-amide] | 0.996 | ≥ 20 | ≥ 20 | ≥ 20 | 18.3 | – | – | –
6 | COc1ccc(C(=O)NCCn2cc(C(=O)NC(C#N)c3ccc(C(F)(F)F)cc3)nn2)c(F)c1 (stereo not shown) [Example 74, 1-[2-(2-Fluoro-4-methoxy-benzoylamino)-ethyl]-1H-[1,2,3]triazole-4-carboxylic acid [cyano-(4-trifluoromethyl-phenyl)-methyl]-amide] | 1.74 | ≥ 20 | ≥ 20 | ≥ 20 | ≥ 20 | – | – | –
7 | CCc1ccc(C(C#N)NC(=O)c2cn(CCNC(=O)c3ccc(F)cc3OC)nn2)cc1 (stereo not shown) [Example 36, 1-[2-(4-Fluoro-2-methoxy-benzoylamino)-ethyl]-1H-[1,2,3]triazole-4-carboxylic acid [cyano-(4-ethyl-phenyl)-methyl]-amide] | 2.06 | ≥ 20 | ≥ 20 | ≥ 20 | ≥ 20 | – | – | –
8 | CCc1ccc(C(C#N)NC(=O)c2cn(CCNC(=O)c3ccc(C(F)(F)F)cn3)nn2)cc1 (stereo not shown) [Example 45, 5-Trifluoromethyl-pyridine-2-carboxylic acid [2-(4-{[cyano-(4-ethyl-phenyl)-methyl]-carbamoyl}-[1,2,3]triazol-1-yl)-ethyl]-amide] | 1.13 | ≥ 20 | ≥ 20 | ≥ 20 | ≥ 20 | – | – | –
9 | CCc1ccc(C(C#N)NC(=O)c2cn(CCNC(=O)c3cc(Cl)ccn3)nn2)cc1 (stereo not shown) [Example 27, 4-Chloro-pyridine-2-carboxylic acid [2-(4-{[cyano-(4-ethyl-phenyl)-methyl]-carbamoyl}-[1,2,3]triazol-1-yl)-ethyl]-amide] | 4.52 | ≥ 20 | ≥ 20 | ≥ 20 | ≥ 20 | – | – | –

Second part, the compound after the results:

Row | IC50 [1] [µM] | IC50 [2, 6] [µM] | IC50 [3] [µM] | IC50 [4, 7] [µM] | IC50 [5, 8] [µM] | IC50 [2] [µM] | IC50 [4] [µM] | IC50 [5] [µM] | SMILES
10 | 0.524 | ≥ 20 | ≥ 20 | ≥ 20 | ≥ 20 | – | – | – | COc1cc(C(F)(F)F)ccc1C(=O)NCCn1cc(C(=O)NC(C#N)c2ccc(C(F)(F)F)cc2)nn1 (stereo not shown) [Example 72, 1-[2-(2-Methoxy-4-trifluoromethyl-benzoylamino)-ethyl]-1H-[1,2,3]triazole-4-carboxylic acid [cyano-(4-trifluoromethyl-phenyl)-methyl]-amide]
11 | 0.184 | ≥ 20 | ≥ 20 | ≥ 20 | ≥ 20 | – | – | – | N#CC(NC(=O)c1cn(CCNC(=O)c2ccc(C(F)(F)F)cc2F)nn1)c1ccc(C(F)(F)F)cc1 (stereo not shown) [Example 73, 1-[2-(2-Fluoro-4-trifluoromethyl-benzoylamino)-ethyl]-1H-[1,2,3]triazole-4-carboxylic acid [cyano-(4-trifluoromethyl-phenyl)-methyl]-amide]
12 | 0.15 | ≥ 20 | ≥ 20 | ≥ 20 | ≥ 20 | – | – | – | COc1ccc(C(=O)NCCn2cc(C(=O)NC(C#N)c3ccc(SC)cc3)nn2)c(OC)c1OC (stereo not shown) [Example 2, 1-[2-(2,3,4-Trimethoxy-benzoylamino)-ethyl]-1H-[1,2,3]triazole-4-carboxylic acid [cyano-(4-methylsulfanyl-phenyl)-methyl]-amide]
13 | 0.327 | 16.8 | ≥ 20 | ≥ 20 | ≥ 20 | – | – | – | COc1ccc(C(=O)NCCn2cc(C(=O)NC(C#N)c3ccc(Cl)cc3)nn2)c(OC)c1OC (stereo not shown) [Example 68, 1-[2-(2,3,4-Trimethoxy-benzoylamino)-ethyl]-1H-[1,2,3]triazole-4-carboxylic acid [(4-chloro-phenyl)-cyano-methyl]-amide]
14 | 0.205 | ≥ 20 | ≥ 20 | ≥ 20 | ≥ 20 | – | – | – | CCOC(=O)[C@H](CCc1ccccc1)NC(=O)c1cn(CCNC(=O)c2ccc(C(F)(F)F)cc2F)nn1 [Example 81, (S)-2-({1-[2-(2-Fluoro-4-trifluoromethyl-benzoylamino)-ethyl]-1H-[1,2,3]triazole-4-carbonyl}-amino)-4-phenyl-butyric acid ethyl ester]
15 | 0.619 | ≥ 20 | ≥ 20 | ≥ 20 | ≥ 20 | – | – | – | COc1ccc(C(=O)NCCn2cc(C(=O)NC(C#N)c3ccc(C(F)(F)F)cc3)nn2)c(OC)c1OC (stereo not shown) [Example 60, 1-[2-(2,3,4-Trimethoxy-benzoylamino)-ethyl]-1H-[1,2,3]triazole-4-carboxylic acid [cyano-(4-trifluoromethyl-phenyl)-methyl]-amide]
16 | 0.282 | ≥ 20 | ≥ 20 | ≥ 20 | ≥ 20 | – | – | – | CCc1ccc(C(C#N)NC(=O)c2cn(CCNC(=O)c3ccc(S(C)(=O)=O)cc3Cl)nn2)cc1 (stereo not shown) [Example 41, 1-[2-(2-Chloro-4-methanesulfonyl-benzoylamino)-ethyl]-1H-[1,2,3]triazole-4-carboxylic acid [cyano-(4-ethyl-phenyl)-methyl]-amide]
17 | 0.921 | – | ≥ 20 | – | – | 8.36 | ≥ 20 | ≥ 20 | COc1ccc(C(=O)NCCn2cc(C(=O)N[C@@H](CCc3ccccc3)C(=O)O)nn2)c(OC)c1OC [Example 83, (S)-4-Phenyl-2-({1-[2-(2,3,4-trimethoxy-benzoylamino)-ethyl]-1H-[1,2,3]triazole-4-carbonyl}-amino)-butyric acid]
